Assay results from patent US6020342A, “Fused imidazo[1,2-A]pyridines” (Shinnippon Pharmaceutical, Inc., priority 1995, dated 2000).

The compounds below were run against T1, H^+ /K^+ -ATPase (Sus scrofa, UniProt P19156) (assay: Inhibitory Action on H^+ /K^+ -ATPase Activity). Settings: microsome fraction from porcine gastric mucosa, pH7.4, 37° C., 30 min preincubation, 15 min reaction.
T1 construct: a microsome fraction prepared from porcine gastric mucosa was used as a standard enzyme; from tissue; host or cells: porcine gastric mucosa, microsome fraction
T1 sequence (P19156 2-1034 limits assumed): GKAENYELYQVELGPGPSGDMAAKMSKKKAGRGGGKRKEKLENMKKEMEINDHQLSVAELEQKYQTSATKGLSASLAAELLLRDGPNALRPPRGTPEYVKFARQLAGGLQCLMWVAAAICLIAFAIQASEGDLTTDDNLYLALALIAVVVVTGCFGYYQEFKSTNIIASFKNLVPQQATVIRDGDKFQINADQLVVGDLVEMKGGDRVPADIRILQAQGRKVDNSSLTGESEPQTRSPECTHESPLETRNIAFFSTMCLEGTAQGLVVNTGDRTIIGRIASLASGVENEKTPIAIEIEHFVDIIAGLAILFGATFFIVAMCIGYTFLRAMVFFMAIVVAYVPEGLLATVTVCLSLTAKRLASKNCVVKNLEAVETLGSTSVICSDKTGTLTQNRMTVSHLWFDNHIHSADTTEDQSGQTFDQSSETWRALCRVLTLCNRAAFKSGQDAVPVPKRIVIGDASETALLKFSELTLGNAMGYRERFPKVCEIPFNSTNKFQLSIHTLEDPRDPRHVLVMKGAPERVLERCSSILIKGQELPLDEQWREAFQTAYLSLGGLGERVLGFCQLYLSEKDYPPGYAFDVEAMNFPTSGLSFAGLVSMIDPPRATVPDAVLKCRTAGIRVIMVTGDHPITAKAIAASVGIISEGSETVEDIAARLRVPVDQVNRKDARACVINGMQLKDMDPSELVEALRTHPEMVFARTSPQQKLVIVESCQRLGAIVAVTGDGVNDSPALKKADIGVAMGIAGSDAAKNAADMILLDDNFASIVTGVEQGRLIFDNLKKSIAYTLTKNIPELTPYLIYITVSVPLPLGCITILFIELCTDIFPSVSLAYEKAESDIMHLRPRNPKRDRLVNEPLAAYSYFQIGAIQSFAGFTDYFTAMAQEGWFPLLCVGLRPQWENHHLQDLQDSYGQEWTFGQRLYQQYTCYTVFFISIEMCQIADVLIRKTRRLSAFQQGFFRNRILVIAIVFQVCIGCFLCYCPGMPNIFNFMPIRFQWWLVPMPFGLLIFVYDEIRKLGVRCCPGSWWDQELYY
T1 sequence (P18434 whole entry partner): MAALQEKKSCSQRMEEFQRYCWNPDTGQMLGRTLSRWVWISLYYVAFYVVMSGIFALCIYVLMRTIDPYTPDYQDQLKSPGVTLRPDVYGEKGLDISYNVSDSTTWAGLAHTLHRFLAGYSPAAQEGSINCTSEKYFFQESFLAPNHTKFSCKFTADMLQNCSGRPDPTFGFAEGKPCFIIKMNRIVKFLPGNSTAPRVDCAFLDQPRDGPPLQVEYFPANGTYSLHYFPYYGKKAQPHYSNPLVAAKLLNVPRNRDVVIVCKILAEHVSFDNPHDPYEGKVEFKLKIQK
Type: biochemical
Method: Inhibitory Action on H^+ /K^+ -ATPase Activity
According to the method of Hongo et al. [The Japanese Journal of Pharmacology, 52, p295, (1990)], a microsome fraction prepared from porcine gastric mucosa was used as a standard enzyme. The standard enzyme (10-20lig protein) and the test compound (0.1-100 μM) dissolved in dimethylsulfoxide was incubated at 37° C. for 30 minutes in the 50 mM Tris-acetate buffer (pH7.4, containing 2 mM magnesium chloride, 5 mM potassium chloride). The enzyme reaction was started by adding adenosinetriphosphate (ATP). Tris at the final concentration of 2 mM, and the reaction was kept at 37° C. for 15 minutes. The reaction was stopped by adding chilled 10% trichloroacetic acid. Inorganic phosphate released during the reaction was calorimetrically determined according to the method of Fiske-Subbarow [The Journal of Biological Chemistry, 66, p375, (1925)]. H^+ /K^+ -ATPase activity was determined by the difference of the enzyme activities under the conditions with or without potassium chloride. The inhibitory activities of test compounds were determined as the 50% inhibitory concentration (IC50 value) from reaction-concentration curve, and the results are shown in Table 3.
In the case of `Cc1ccccc1-c1nc2c3ccccc3c(CCC(C)C)cn2c1N` [Compound 15, 3-Amino-6-isopentyl-2-(2-methylphenyl)imidazo[2,1-a]isoquinoline], the IC50 is reported as 3.7 µM. In the case of `COc1ccc(-c2cn3c(N)c(-c4ccccc4C)nc3c3ccccc23)cc1` [Compound 21, 3-Amino-6-(4-methoxyphenyl)-2-(2-methylphenyl)imidazo[2,1-a]isoquinoline], the IC50 is reported as 7.4 µM. `Cc1ccccc1-c1nc2c3cc(O)ccc3ccn2c1N` [Compound 22, 3-Amino-9-hydroxy-2-(2-methylphenyl)imidazo[2,1-a]isoquinoline] was tested, and the IC50 was 1.9 µM. `Cc1ccccc1-c1nc2c3ccccc3c(OCc3ccccc3)cn2c1N` [Compound 38, 3-Amino-6-benzyloxy-2-(2-methylphenyl)imidazo[2,1-a]isoquinoline] gave an IC50 of 4.8 µM. `CCN(CC)c1cccc2c1ccn1c(N)c(-c3ccccc3C)nc21` [Compound 54, 3-Amino-7-diethylamino-2-(2-methylphenyl)imidazo[2,1-a]isoquinoline] showed an IC50 of 1 µM. `Cc1cc(-c2nc3c4ccccc4ccn3c2N)c(C)s1` [Compound 83, 3-Amino-2-(2,5-dimethyl-3-thienyl)imidazo[2,1-a]isoquinoline] showed an IC50 of 5.6 µM. In the case of `Cc1ccccc1-c1nc2n(c1N)C(C)(C)Cc1ccccc1-2` [Compound 104, 3-Amino-5,5-dimethyl-2-(2-methylphenyl)-5,6-dihydroimidazo[2,1-a]isoquinoline], the IC50 is reported as 12 µM. Compound `Cc1cc(O)ccc1-c1nc2n(c1N)CCc1ccccc1-2` [Compound 107, 3-Amino-2-(4-hydroxy-2-methylphenyl)-5,6-dihydroimidazo[2,1-a]isoquinoline] has an IC50 of 33 µM. `CC(=O)N(Cc1ccc(C)cc1)c1c(-c2ccccc2C)nc2c3ccccc3ccn12` [Compound 151, 3-[N-Acetyl-N-(4-methylbenzyl)amino]-2-(2-methylphenyl)imidazo[2,1-a]isoquinoline] was tested, and the IC50 was 7.8 µM. For `CCCc1cccc2c1ccn1c(NCC)c(-c3ccccc3C)nc21` [Compound 163, 3-Ethylamino-2-(2-methylphenyl)-7-propylimidazo[2,1-a]isoquinoline], the IC50 was 4.6 µM. Compound `CCNc1c(-c2ccccc2C)nc2c3cccc(OCc4ccccc4)c3ccn12` [Compound 169, 7-Benzyloxy-3-ethylamino-2-(2-methylphenyl)imidazo[2,1-a]isoquinoline] has an IC50 of 5.8 µM. `Cc1ccc(-c2nc3c4ccccc4ccn3c2NCCC(C)C)c(C)c1` [Compound 189, 3-Isopentylamino-2-(2,4-dimethylphenyl)imidazo[2,1-a]isoquinoline] was tested, and the IC50 was 6.8 µM. For `CCCCCCNc1c(-c2ccccc2C)nc2c3ccccc3ccn12` [Compound 191, 3-Hexylamino-2-(2-methylphenyl)imidazo[2,1-a]isoquinoline], the IC50 was 5.2 µM. Compound `Cc1ccccc1-c1nc2c3ccccc3ccn2c1NC(C)c1ccccc1` (stereo not shown) [Compound 192, 2-(2-Methylphenyl)-3-[(1-phenylethyl)amino]imidazo[2,1-a]isoquinoline] has an IC50 of 4.4 µM. In the case of `Cc1ccccc1-c1nc2c3ccccc3ccn2c1NCc1ccc2ccccc2c1Br` [Compound 195], the IC50 is reported as 8.8 µM. For `CCN(CC)c1c(-c2ccccc2C)nc2c3cccc(Br)c3ccn12` [Compound 200, 7-Bromo-3-diethylamino-2-(2-methylphenyl)imidazo[2,1-a]isoquinoline], the IC50 was 1.2 µM. `CCN(CCCl)c1c(-c2ccccc2C)nc2c3ccccc3ccn12` [Compound 202, 3-[N-(2-Chloroethyl)-N-ethylamino]-2-(2-methylphenyl)imidazo[2,1-a]isoquinoline] showed an IC50 of 9.8 µM. `CCCN(CC)c1c(-c2ccccc2F)nc2c3ccccc3ccn12` [Compound 206, 3-(N-Ethyl-N-propylamino)-2-(2-fluorophenyl)imidazo[2,1-a]isoquinoline] gave an IC50 of 2.3 µM. For `CCCN(CC)c1c(-c2cccc(C)c2)nc2c3ccccc3ccn12` [Compound 211, 3-(N-Ethyl-N-propylamino)-2-(3-methylphenyl)imidazo[2,1-a]isoquinoline], the IC50 was 2.4 µM.
